Active and inactive are the calls of the source. Cut-off read from the data, not from the text of the source: actives have a measured IC50 and inactives only a lower limit.
How the values were obtained:
Format in all cases: functional
Caspase-3 = molecular target: T1, Caspase-3 (Homo sapiens, UniProt P42574);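 note: Dose-response selectivity test against caspase-3 for candidate inhibitors of sentrin-specific proteases (SENPs)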
T1 sequence (P42574 whole entry): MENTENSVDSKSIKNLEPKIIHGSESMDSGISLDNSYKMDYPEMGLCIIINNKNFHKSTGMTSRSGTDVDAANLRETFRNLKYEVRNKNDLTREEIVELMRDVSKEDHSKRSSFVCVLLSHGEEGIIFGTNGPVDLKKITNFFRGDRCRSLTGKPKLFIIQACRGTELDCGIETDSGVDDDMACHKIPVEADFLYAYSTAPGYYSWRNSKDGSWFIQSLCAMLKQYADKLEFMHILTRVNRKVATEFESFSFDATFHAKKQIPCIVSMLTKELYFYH

[1] = molecular target: T2, Sentrin-specific protease 7 (Homo sapiens, UniProt Q9BQF6);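 note: Luminescence-based dose-response confirmation of ultra-high-throughput screening hits, measuring inhibition of SENP7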
T2 sequence (Q9BQF6 whole entry): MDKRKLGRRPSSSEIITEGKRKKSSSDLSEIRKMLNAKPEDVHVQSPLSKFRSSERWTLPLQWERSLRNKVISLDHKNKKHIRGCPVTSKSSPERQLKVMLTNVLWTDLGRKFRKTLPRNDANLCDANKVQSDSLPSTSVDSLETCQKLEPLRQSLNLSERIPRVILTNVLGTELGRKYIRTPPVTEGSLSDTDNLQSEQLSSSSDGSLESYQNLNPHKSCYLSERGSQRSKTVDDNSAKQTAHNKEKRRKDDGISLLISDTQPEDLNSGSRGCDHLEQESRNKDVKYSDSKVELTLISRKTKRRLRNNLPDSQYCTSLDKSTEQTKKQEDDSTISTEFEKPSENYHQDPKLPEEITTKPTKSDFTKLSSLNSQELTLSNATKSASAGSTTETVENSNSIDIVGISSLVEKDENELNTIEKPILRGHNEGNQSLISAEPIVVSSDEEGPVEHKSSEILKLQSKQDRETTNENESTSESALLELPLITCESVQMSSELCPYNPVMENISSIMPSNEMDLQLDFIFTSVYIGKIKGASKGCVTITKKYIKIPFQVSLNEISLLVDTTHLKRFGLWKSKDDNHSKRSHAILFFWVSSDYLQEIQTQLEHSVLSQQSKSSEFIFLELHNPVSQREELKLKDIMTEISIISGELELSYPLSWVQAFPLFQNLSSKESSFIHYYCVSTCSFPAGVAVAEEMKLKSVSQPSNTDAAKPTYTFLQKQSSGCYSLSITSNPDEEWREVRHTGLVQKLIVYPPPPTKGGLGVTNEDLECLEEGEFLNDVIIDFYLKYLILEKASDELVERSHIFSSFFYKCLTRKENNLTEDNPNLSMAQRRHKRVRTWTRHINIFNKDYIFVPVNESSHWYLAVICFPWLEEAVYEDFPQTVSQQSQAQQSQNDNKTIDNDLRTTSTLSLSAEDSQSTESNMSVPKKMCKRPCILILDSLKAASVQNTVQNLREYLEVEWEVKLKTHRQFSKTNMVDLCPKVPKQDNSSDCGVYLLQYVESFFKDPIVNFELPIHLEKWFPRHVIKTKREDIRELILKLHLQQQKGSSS

[2] = molecular target: T3, Sentrin-specific protease 6 (Homo sapiens, UniProt Q9GZR1);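 note: Luminescence-based dose-response confirmatory assay of SENP6 inhibition, following up an ultra-high-throughput screen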
T3 sequence (Q9GZR1 whole entry): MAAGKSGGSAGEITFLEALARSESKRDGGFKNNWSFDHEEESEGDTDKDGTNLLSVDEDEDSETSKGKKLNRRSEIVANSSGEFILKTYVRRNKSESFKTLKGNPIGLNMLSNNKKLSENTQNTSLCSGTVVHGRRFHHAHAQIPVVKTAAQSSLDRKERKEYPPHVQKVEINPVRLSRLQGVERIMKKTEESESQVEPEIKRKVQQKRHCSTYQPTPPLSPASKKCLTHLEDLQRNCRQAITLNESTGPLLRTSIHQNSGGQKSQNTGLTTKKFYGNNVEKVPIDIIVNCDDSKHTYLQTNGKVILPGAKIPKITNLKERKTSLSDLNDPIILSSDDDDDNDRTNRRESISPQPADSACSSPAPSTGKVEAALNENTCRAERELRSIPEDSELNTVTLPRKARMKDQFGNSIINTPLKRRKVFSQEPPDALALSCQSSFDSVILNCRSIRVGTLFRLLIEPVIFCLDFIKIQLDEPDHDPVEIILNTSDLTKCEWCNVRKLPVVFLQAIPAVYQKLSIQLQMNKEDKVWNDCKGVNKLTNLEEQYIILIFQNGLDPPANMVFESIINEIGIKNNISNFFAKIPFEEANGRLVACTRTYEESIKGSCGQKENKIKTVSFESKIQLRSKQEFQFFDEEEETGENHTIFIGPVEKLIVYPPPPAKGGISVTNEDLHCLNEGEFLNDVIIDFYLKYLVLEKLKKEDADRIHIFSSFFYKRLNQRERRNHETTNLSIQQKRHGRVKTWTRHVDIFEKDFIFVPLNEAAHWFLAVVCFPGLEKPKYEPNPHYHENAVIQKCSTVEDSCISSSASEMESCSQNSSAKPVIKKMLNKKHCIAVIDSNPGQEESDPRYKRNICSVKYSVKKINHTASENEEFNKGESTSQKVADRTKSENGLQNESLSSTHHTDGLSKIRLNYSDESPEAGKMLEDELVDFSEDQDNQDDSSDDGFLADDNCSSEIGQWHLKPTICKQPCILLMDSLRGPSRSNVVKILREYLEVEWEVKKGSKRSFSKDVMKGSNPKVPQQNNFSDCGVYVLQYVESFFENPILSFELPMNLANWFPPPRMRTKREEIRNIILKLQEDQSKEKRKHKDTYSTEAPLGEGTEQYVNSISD

[3] = molecular target: T4, Sentrin-specific protease 8 (Homo sapiens, UniProt Q96LD8);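 note: luminescence read-out of SENP8 inhibition, dose-response confirmation following an ultra-high-throughput screen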
T4 sequence (Q96LD8 whole entry): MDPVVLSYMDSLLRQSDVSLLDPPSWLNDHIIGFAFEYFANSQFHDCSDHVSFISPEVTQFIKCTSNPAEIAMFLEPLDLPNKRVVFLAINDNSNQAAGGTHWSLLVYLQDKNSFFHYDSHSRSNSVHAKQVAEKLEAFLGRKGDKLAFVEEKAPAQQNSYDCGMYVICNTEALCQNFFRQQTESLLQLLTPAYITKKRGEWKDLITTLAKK

Compound	IC50 (Caspase-3)	IC50 [1]	IC50 [2]	IC50 [3]
O=c1oc2c(O)cccc2cc1-c1nc2ccccc2[nH]1	0.95 µM (active)	0.955 µM (active)	1.26 µM (active)	2.65 µM (active)
CCOC(=O)c1ccc(Nc2cc3ccccc3c(O)n2)cc1	8.27 µM (active)	10.1 µM (active)	6.63 µM (active)	13.6 µM (active)
C=CCn1c(NC(=O)c2ccccc2Cl)c(C#N)c2nc3ccccc3nc21	5.6 µM (active)	3.08 µM (active)	< 1.55 µM (active)	< 1.55 µM (active)

— ChEMBL document CHEMBL1201862, “PubChem BioAssay data set” (2004)
